Values quoted from earlier work in patent publication US20100028276A1, “SUNSCREEN COMPOSITIONS” (priority 2007, published 2010).

Legend:
[1] = tested on: cancer cells
[2] = uterine wet weight, cell height, cell proliferation assays

| Structure (SMILES) | effect on growth of cancer cells [1] | estrogenicity [2] |
| --- | --- | --- |
| Cc1ccc(C=C2C(=O)C3(C)CCC2C3(C)C)cc1 (stereo not drawn) [4-methyl-benzylidene camphor, 3-(4-methylbenxylidene) camphor] | made cancer cells grow more rapidly | highly estrogenic |
| COc1ccc(C(=O)c2ccccc2)c(O)c1 [benzophenone-s, Benzophenone-3] | made cancer cells grow more rapidly | highly estrogenic |
| CC1CC(OC(=O)c2ccccc2O)CC(C)(C)C1 (stereo not drawn) [homosalate] | made cancer cells grow more rapidly |  |
| CCCCC(CC)COC(=O)c1ccc(N(C)C)cc1 (stereo not drawn) [octyl-dimethyl-PABA] | made cancer cells grow more rapidly |  |
